Data as given in article PMC11111408, “Concurrent inhibition of oncogenic and wild-type RAS-GTP for cancer therapy” (Nature, 2024).
Where “and” joins values, the source holds several entries; their conditions need not be identical. Equal values may be shown once.

How the values were obtained:
[1] = test system: KRAS^G12C with secondary switch II pocket mutations; experiment: Cellular nano-BRET KRAS:CRAF disruption, KRAS^G12C with secondary SWII mutations; assay type: cell-based, human; conditions: KRAS^G12C with secondary mutation, 4 h
KRAS^G12S = KRAS^G12S (Homo sapiens, UniProt P01116+P62937, G12S); experiment: Cellular RAS–CYPA binding (tri-complex formation), nano-BRET in U2OS cells; assay type: cell-based; design: expressed in transfected cells; host or cells: U2OS PPIA-KO; conditions: (95% CI)
Text: (§1) KRAS4B, or other small GTPases, containing the indicated mutations were cloned in pNLF-N or pHTN plasmids for expression with an N-terminal nanoluciferase or HaloTag fusion, respectively. […] The following day, the cells were collected by Trypsin and reseeded in a white tissue culture-treated 96-well plate in OptiMem phenol red-free medium (Gibco) containing 4% FBS and a 1:1,000 dilution of NanoBRET 618 HaloTag ligand (Promega). For endpoint concentration response curves, vivazine nanoluciferase substrate was added to 1× concentration in OptiMem phenol red-free medium with 4% FBS. Varying concentrations of inhibitor were added and incubated for 1 or 4 h before the nano-BRET signal was measured on a Perkin Elmer Envision plate reader. For kinetic assays, endurazine nanoluciferase substrate was used in place of vivazine, and the plate was placed in a Cytation5 multi-mode reader pre-equilibrated to 37 °C and 5% CO2.

KRAS^G12V = KRAS^G12V (Homo sapiens, UniProt P01116+P62937, G12V); experiment: as above; assay type: cell-based; design: expressed in transfected cells; host or cells: U2OS PPIA-KO; conditions: for Cellular milliBRET signal between CYPA and KRAS G12V: KRASG12V, single replicates
Text: as §1

WT KRAS = target: T1, WT KRAS (Homo sapiens, UniProt P01116+P62937); experiment: KRAS–RALGDS RID binding inhibition in vitro; assay type: biochemical; design: TR-FRET of recombinant KRAS and RALGDS RID: scale not given here; conditions: for TR-FRET of recombinant KRAS and RALGDS RID: single replicates
T1 construct: His6-TEV (N); made in house; host or cells: E. coli BL21(DE3)

[2] = test system: antigen specific CD8+ T cells, C57BL/6J mice; experiment: OVA peptide vaccination, CD8+ T cell response; assay type: in vivo, mouse; conditions: individual mice; for IFNγ production by ELISpot: 25 mg/kg PO daily, 25 mg/kg
Procedure: Mice were euthanized on day 15 after treatment start, and spleens were harvested and assessed for frequency of antigen specific (H-2Kb [sequence] tetramer positive) CD8 + T cells by flow cytometry (a) and for IFNγ production by ELISpot.
Briefly, bone marrow was isolated from the femurs and tibias of 6-8 week-old female C57BL/6J mice (Jackson Laboratory). Bone marrow cells were plated in complete RPMI containing 10% FBS, 1 mM Sodium Pyruvate, mM HEPES, 1x MEM Non-Essential Amino Acids, and supplemented with GMCSF (Peprotech) at 20 ng/ml. On day 10, 0.5 ng/ml IL-4 (Peptotech) was added to the media. 50% of the media was replaced with fresh GMCSF-containing media on culture days 6, 8, and 10. […] 100% of the media was replaced on culture days 12 and 13. To activate BMDCs prior to vaccination, 0.5 μg/ml CpG (Invivogen, tlrl-1668) and 1 μg/ml LPS (Sigma Aldrich, L5418) were added to the media on day 13. On culture day 14, activated BMDCs were pulsed with OVA peptide ([sequence]) (1 μg/ml, Anaspec, AS-60193-1) for 2 hours and washed 3 times in serum-free RPMI. 1x10^6 peptide-pulsed, activated BMDCS were injected intravenously into each mouse on day 0 and day 8. […] After 15 days of treatment, mice were euthanized and spleens were harvested. Spleens were mechanically dissociated into single-cell suspension, incubated at 4°C for 20 minutes with Mouse Fc blocking agent (anti-CD16/32, Biolegend) and Live/Dead blue Viability Dye (ThermoFisher), and 20 minutes with cell staining antibody mix. […] Murine IFN𝛄 ELISpot (ImmunoSpot, CTL) was performed according to manufacturer’s protocol. Briefly, spleens were mechanically dissociated into single-cell suspension. […] Plates were incubated at 37°C, 5% CO2 for 24 hours before staining and analysis on the CTL ImmunoSpot S6 Universal M2 Analyzer.

NRAS WT = NRAS WT (Homo sapiens, UniProt P01111+P62937); experiment: RAS binding affinity of compound-bound CYPA (Kd2), SPR; conditions: steady state SPR, (95% CI)
KRAS–RALGDS = target: T2, KRAS–RALGDS (Homo sapiens, UniProt P01116, G12D); experiment: Cellular nano-BRET, full length RALGDS binding to KRAS G12C, G12D, G12V; assay type: cell-based; conditions: KRAS G12D, in the presence of CYPA, single replicates
T2 construct: expressed in transfected cells; host or cells: U2OS

GDP-bound KRAS(G12C) = target: T3, GDP-bound KRAS(G12C) (Homo sapiens, UniProt P01116, G12C); experiment: SPR binding of RMC-7977–CYPA binary complex to GDP-bound KRAS; conditions: in vitro
T3 construct: His6-TEV (N); made in house; host or cells: E. coli BL21(DE3)

[3] = Mouse blood and tumour pharmacokinetics in NCI-H441 tumour bearing mice; conditions: for RMC-7977 (nmol/kg) Tumor: single dose, individual animals
Procedure: Tumour tissue samples were homogenized with a 10× volume of methanol/15 mM PBS (1:2, v:v). Sample preparation and analysis on a Sciex 6500+ triple quadrupole mass spectrometer equipped with an ACQUITY UPLC system were performed as previously described[12].
All datapoints shown, n = 3 per dose and timepoint.
Female BALB/c nude mice, NOD SCID and NSG mice 6-8 weeks old from Beijing Vital River/VR Laboratory Animal Co., LTD, Beijing AniKeeper Biotech Co., Ltd., Shanghai Sino-British SIPPR/BK Laboratory Animal Co., LTD and The Jackson Laboratory were used. Animals were housed in polycarbonate cages, in an environmentally monitored, well ventilated room maintained at a constant temperature of 20-26°C and relative humidity of 40-80%. Fluorescent lighting provided illumination approximately 12 hours per day. Each mouse was inoculated at the right flank with tumor cells (2x10^6-1x10^7) in 100-200 µL of media/PBS supplemented with Matrigel (1:1). Treatments were started when the average tumor size reached 100-250 mm^3. […] Mice on studies were weighed and tumor measurements collected twice weekly. […] Body weights were collected twice a week during the study. For single-dose pharmacokinetic/pharmacodynamics (PK/PD) study, mice were randomized into treatment groups when mean tumor volume reached 400-600 mm^3.

[4] = female, BALB/c nude, mouse, tumour, po, 10 mg/kg
[5] = female, BALB/c nude, mouse, whole blood, po, 10 mg/kg

For `CCn1c(-c2cc(N3CCN(C4CC4)CC3)cnc2[C@H](C)OC)c2c3cc(ccc31)-c1csc(n1)C[C@H](NC(=O)[C@H]1[C@@H]3COC[C@@H]31)C(=O)N1CCC[C@H](N1)C(=O)OCC(C)(C)C2` [RMC-7977], the “effect of switch II pocket binding mutations (R68, Y96, H95) on potency” value [1] was “little or no effect”, the EC50 (KRAS^G12S) was 2.24 nM and the “Cellular milliBRET signal between CYPA and KRAS G12V” value (KRAS^G12V; RMC-7977 0.152 nM) was 1.173 milliBRET and 1.06 milliBRET and 0.9358 milliBRET and 1.334 milliBRET and 1.012 milliBRET and 1.508 milliBRET. The “Cellular milliBRET signal between CYPA and KRAS G12V” value (KRAS^G12V; RMC-7977 0.457 nM) was 1.649 milliBRET and 2.359 milliBRET and 1.781 milliBRET and 2.809 milliBRET and 1.779 milliBRET and 2.2094 milliBRET, the “Cellular milliBRET signal between CYPA and KRAS G12V” value (KRAS^G12V; RMC-7977 1.372 nM) was 4.1167 milliBRET and 4.336 milliBRET and 3.9 milliBRET and 4.218 milliBRET and 4.578 milliBRET and 4.094 milliBRET and the “Cellular milliBRET signal between CYPA and KRAS G12V” value (KRAS^G12V; RMC-7977 4.115 nM) was 7.461 milliBRET and 7.409 milliBRET and 7.89 milliBRET and 7.071 milliBRET and 7.622 milliBRET and 7.676 milliBRET. For the same compound, the “Cellular milliBRET signal between CYPA and KRAS G12V” value (KRAS^G12V; RMC-7977 12.346 nM) was 11.4839 milliBRET and 11.5824 milliBRET and 12.0176 milliBRET and 11.1912 milliBRET and 11.5065 milliBRET and 11.1163 milliBRET, the “Cellular milliBRET signal between CYPA and KRAS G12V” value (KRAS^G12V; RMC-7977 37.037 nM) was 13.6301 milliBRET and 14.0182 milliBRET and 13.661 milliBRET and 13.6725 milliBRET and 13.3211 milliBRET and 13.487 milliBRET and the “Cellular milliBRET signal between CYPA and KRAS G12V” value (KRAS^G12V; RMC-7977 111.111 nM) was 14.1557 milliBRET and 14.0898 milliBRET and 14.0287 milliBRET and 13.9679 milliBRET and 13.745 milliBRET and 13.7924 milliBRET. For the same compound, the “Cellular milliBRET signal between CYPA and KRAS G12V” value (KRAS^G12V; RMC-7977 333.333 nM) was 14.0834 milliBRET and 13.7044 milliBRET and 13.6567 milliBRET and 12.9685 milliBRET and 13.078 milliBRET and 12.7653 milliBRET, the “Cellular milliBRET signal between CYPA and KRAS G12V” value (KRAS^G12V; RMC-7977 1000.000 nM) was 14.1055 milliBRET and 12.901 milliBRET and 13.6313 milliBRET and 12.8159 milliBRET and 14.3526 milliBRET and 13.1398 milliBRET and the EC50 (KRAS^G12V; KRAS^G12V, nano-BRET, (95% CI)) was 2.25 nM. For the same compound, the “TR-FRET of recombinant KRAS and RALGDS RID” value (from here on “TR-FRET”) (WT KRAS; RMC-7977 0.005 nM with CYPA) was 1.077 and 1.051 and 1.011 and 0.9577, the “TR-FRET” value (WT KRAS; RMC-7977 0.046 nM with CYPA) was 0.9855 and 0.9772 and 0.9315 and 0.827 and the “TR-FRET” value (WT KRAS; RMC-7977 0.412 nM with CYPA) was 0.9473 and 0.8792 and 0.8105 and 0.8965. For the same compound, the “TR-FRET” value (WT KRAS; RMC-7977 1.235 nM with CYPA) was 0.966 and 0.9012 and 0.7562 and 0.8255, the “TR-FRET” value (WT KRAS; RMC-7977 3.704 nM with CYPA) was 0.755 and 0.7635 and 0.8193 and 0.729 and the “TR-FRET” value (WT KRAS; RMC-7977 11.111 nM with CYPA) was 0.531 and 0.5523 and 0.5275 and 0.6425. For the same compound, the “TR-FRET” value (WT KRAS; RMC-7977 33.333 nM with CYPA) was 0.3432 and 0.2545 and 0.2295 and 0.2898, the “TR-FRET” value (WT KRAS; RMC-7977 100.000 nM with CYPA) was 0.19 and 0.03225 and 0.05775 and 0.042 and the IC50 (WT KRAS; recombinant, with CYPA) was 14 nM. For the same compound, the “% Antigen specific CD8 T cells” value ([2]; spleen, day 15, 25 mg/kg PO daily, OVA peptide vaccinated C57BL/6J mice) was 1.46% and 1.22% and 0.72%, the “IFNγ production by ELISpot” value ([2]; splenocytes stimulated with SIINFEKL) was 1885 and 890 and 922 and the “IFNγ production by ELISpot” value ([2]; splenocytes, no stim) was 35 and 80 and 53. The Kd (NRAS WT) was 101 nM, the “Cellular nano-BRET of RALGDS (full-length) binding to KRAS” value (from here on “Cellular nano-BRET of RALGDS”) (KRAS–RALGDS; RMC-7977 12.346 nM) was 21.965 and 22.2278 and 22.7225 and 21.1836 and 19.9465 and 19.3916 and the “Cellular nano-BRET of RALGDS” value (KRAS–RALGDS; RMC-7977 37.037 nM) was 15.9727 and 15.3384 and 16.4816 and 15.5961 and 16.3731 and 14.4955. For the same compound, the “Cellular nano-BRET of RALGDS” value (KRAS–RALGDS; RMC-7977 111.111 nM) was 13.7998 and 12.0846 and 13.3529 and 13.1019 and 13.0482 and 11.2251, the “Cellular nano-BRET of RALGDS” value (KRAS–RALGDS; RMC-7977 333.333 nM) was 11.2999 and 11.1999 and 10.8448 and 10.0467 and 10.686 and 10.4797 and the “Cellular nano-BRET of RALGDS” value (KRAS–RALGDS; RMC-7977 1000.000 nM) was 10.2193 and 10.47 and 10.4459 and 10.0036 and 10.1066 and 10.1313. The “binding of RMC-7977–CYPA binary complex to GDP-bound KRAS(G12C)” value (GDP-bound KRAS(G12C)) was “No binding was observed”, the AUC(0-t) [3, 4] was 24300 ng·h/mL and the half-life [3, 4] was 1100 min. The AUC(0-t) [3, 5] was 7240 ng·h/mL, the Cmax [3, 5] was 1110 ng/mL and the half-life [3, 5] was 167 min. The “RMC-7977 (nmol/kg) Tumor” value ([3]; 8h, 1 mg/kg) was 244 nmol/kg and 196 nmol/kg and 235 nmol/kg, the “RMC-7977 (nmol/kg) Tumor” value ([3]; 8h, 5 mg/kg) was 458 nmol/kg and 496 nmol/kg and 1040 nmol/kg and the “RMC-7977 (nmol/kg) Tumor” value ([3]; 8h, 10 mg/kg) was 998 nmol/kg and 832 nmol/kg and 1249 nmol/kg and 1135 nmol/kg and 713 nmol/kg and 1191 nmol/kg. For the same compound, the “RMC-7977 (nmol/kg) Tumor” value ([3]; 8h, 25 mg/kg) was 2289 nmol/kg and 4057 nmol/kg and 2196 nmol/kg, the “RMC-7977 (nmol/kg) Tumor” value ([3]; 24h, 1 mg/kg) was 38.1 nmol/kg and 54.8 nmol/kg and 48.3 nmol/kg and the “RMC-7977 (nmol/kg) Tumor” value ([3]; 24h, 5 mg/kg) was 201 nmol/kg and 183 nmol/kg and 226 nmol/kg.
